In ChEMBL document CHEMBL1150833, “Five novel highly oxygenated diterpenes of Orthosiphon stamineus from Myanmar” (2001):
Converted amounts (≈) assume the structure as drawn.

Tests used:
[1] = Antiproliferative activity against mouse Colon 26-L5 cells after 4 days by MTT assay; type: functional; conditions: 96 h, read-out: ED50 (the source's name)
HT-1080 = assay: Antiproliferative activity against human HT1080 cells after 4 days by MTT assay; type: functional; conditions: HT-1080, 96 h, read-out: ED50 (the source's name)

`COc1ccc(-c2cc(=O)c3cc(OC)c(OC)c(OC)c3o2)cc1OC` showed an EC50 [1] of 31.4 µg/mL (≈ 84.3 µM) and an EC50 (HT-1080) of 74.8 µg/mL (≈ 201 µM).
`COc1cc(/C=C/C(=O)OCCc2ccc(O)cc2)ccc1O` gave an EC50 [1] of 33.7 µg/mL (≈ 107 µM) and an EC50 (HT-1080) of 47.1 µg/mL (≈ 150 µM).
In the case of `COc1ccc(-c2cc(=O)c3c(OC)c(OC)c(OC)cc3o2)cc1`, the EC50 [1] is reported as 8.1 µg/mL (≈ 23.7 µM) and the EC50 (HT-1080) is reported as 4.5 µg/mL (≈ 13.1 µM).
For `COc1ccc(-c2cc(=O)c3c(O)c(OC)c(OC)cc3o2)cc1O` [EUPATORIN], the EC50 [1] was 3.7 µg/mL (≈ 10.7 µM) and the EC50 (HT-1080) was 8.8 µg/mL (≈ 25.6 µM).
With `O=c1[nH]cc(F)c(=O)[nH]1` [FLUOROURACIL] the EC50 [1] was 0.015 µg/mL (≈ 0.115 µM) and the EC50 (HT-1080) was 0.48 µg/mL (≈ 3.69 µM).
`COc1ccc(-c2cc(=O)c3c(O)c(O)c(OC)cc3o2)cc1` [LADANEIN] gave an EC50 [1] of 2.3 µg/mL (≈ 7.32 µM) and an EC50 (HT-1080) of 3 µg/mL (≈ 9.55 µM).
`C=C[C@H]1[C@@H](OC(=O)c2ccccc2)[C@H]2[C@](O)(C(=O)[C@@]1(C)O)[C@H](OC(C)=O)C[C@H]1C(C)(C)[C@H](O)[C@H](OC(C)=O)[C@H](OC(=O)c3ccccc3)[C@@]12C` [NEOORTHOSIPHOL A] gave an EC50 [1] of 38.8 µg/mL (≈ 56 µM) and an EC50 (HT-1080) of 96.3 µg/mL (≈ 139 µM).
`C=C/C(=C\[C@H]1C(=O)[C@H](OC(C)=O)C[C@H]2C(C)(C)[C@H](O)[C@H](OC(C)=O)[C@H](OC(=O)c3ccccc3)[C@]12C)C(C)=O` [NORSTAMINONE A] showed an EC50 [1] of 12.8 µg/mL (≈ 23.7 µM) and an EC50 (HT-1080) of 23.2 µg/mL (≈ 42.9 µM).
With `C=C[C@@]1(C)C[C@@H](OC(=O)c2ccccc2)[C@H]2[C@](O)(C1=O)[C@H](OC(C)=O)C[C@H]1C(C)(C)[C@H](O)[C@H](OC(C)=O)[C@H](OC(=O)c3ccccc3)[C@@]12C` [ORTHOSIPHOL A] the EC50 [1] was 63.1 µg/mL (≈ 93.2 µM) and the EC50 (HT-1080) was > 100 µg/mL.
With `C=C[C@@]1(C)C[C@@H](OC(=O)c2ccccc2)[C@H]2[C@](O)(C1=O)[C@H](OC(C)=O)C[C@H]1C(C)(C)[C@H](OC(C)=O)[C@H](O)[C@H](OC(=O)c3ccccc3)[C@@]12C` [ORTHOSIPHOL B] the EC50 [1] was 28.1 µg/mL (≈ 41.5 µM) and the EC50 (HT-1080) was 57.9 µg/mL (≈ 85.6 µM).
Molecule `C=C[C@@]1(C)C[C@@H](OC(=O)c2ccccc2)[C@H]2[C@](O)(C1=O)[C@H](OC(C)=O)C[C@H]1C(C)(C)[C@H](O)[C@H](O)[C@H](OC(=O)c3ccccc3)[C@@]12C` [ORTHOSIPHOL K] has an EC50 [1] of 13.8 µg/mL (≈ 21.7 µM) and an EC50 (HT-1080) of 21.8 µg/mL (≈ 34.3 µM).
`C=C[C@]1(C)C(=O)[C@]2(O)[C@H](OC(C)=O)C[C@H]3C(C)(C)[C@H](O)[C@H](OC(C)=O)[C@H](OC(=O)c4ccccc4)[C@]3(C)[C@H]2[C@H](OC(=O)c2ccccc2)[C@@H]1O` [ORTHOSIPHOL L] gave an EC50 [1] of 24.7 µg/mL (≈ 35.7 µM) and an EC50 (HT-1080) of 20.6 µg/mL (≈ 29.7 µM).
For `C=C[C@@]1(C)CC(=O)[C@H]2[C@](O)(C1=O)[C@H](OC(C)=O)C[C@H]1C(C)(C)[C@H](O)[C@H](OC(C)=O)[C@H](OC(=O)c3ccccc3)[C@@]12C` [ORTHOSIPHOL M], the EC50 [1] was 31.3 µg/mL (≈ 54.9 µM) and the EC50 (HT-1080) was 81.7 µg/mL (≈ 143 µM).
`C=C[C@@]1(C)CC(=O)[C@H]2[C@](O)(C1=O)[C@H](O)C[C@H]1C(C)(C)[C@H](OC(=O)c3ccccc3)[C@H](OC(C)=O)[C@H](OC(=O)c3ccccc3)[C@@]12C` [ORTHOSIPHOL N] showed an EC50 [1] of 35.1 µg/mL (≈ 55.5 µM) and an EC50 (HT-1080) of 18.6 µg/mL (≈ 29.4 µM).
